Data taken from ChEMBL document CHEMBL4393657, “Tetrazole hybrids and their antifungal activities” (2019).
≈ marks a conversion by molar mass, not a printed value.

Key:
Assay type in all cases: functional
Candida tropicalis = test: Antifungal activity against Candida tropicalis assessed as reduction in fungal cell growth incubated for 48 hrs by broth microdilution method
Candida albicans = test: Antifungal activity against Candida albicans assessed as reduction in fungal cell growth incubated for 48 hrs by broth microdilution method
Aspergillus niger = test: Antifungal activity against Aspergillus niger assessed as reduction in fungal cell growth incubated for 72 hrs by broth microdilution method
Cryptococcus neoformans = test: Antifungal activity against Cryptococcus neoformans LA314 assessed as reduction in fungal cell growth incubated for 48 hrs by broth microdilution method; settings: LA314, 48 h
Candida parapsilosis = test: Antifungal activity against Candida parapsilosis ATCC 22019 assessed as reduction in fungal cell growth incubated for 48 hrs by broth microdilution method; settings: Lodderomyces parapsilosis, ATCC 22019, 48 h
Nakaseomyces glabratus = test: Antifungal activity against Candida glabrata assessed as reduction in fungal cell growth incubated for 48 hrs by broth microdilution method
Pichia kudriavzevii = test: Antifungal activity against Candida krusei assessed as reduction in fungal cell growth incubated for 48 hrs by broth microdilution method

Row | SMILES | MIC (Candida tropicalis) | MIC (Candida albicans) | MIC (Aspergillus niger) | MIC (Cryptococcus neoformans) | MIC (Candida parapsilosis) | MIC (Nakaseomyces glabratus) | MIC (Pichia kudriavzevii)
1 | CC(n1nnnc1CCN1CCN(c2ccc([N+](=O)[O-])cc2)CC1)C(O)(Cn1cncn1)c1ccc(F)cc1F (stereo not given) | 0.5 to 16 µg/mL (≈ 0.902 to 28.9 µM) | 0.5 to 16 µg/mL (≈ 0.902 to 28.9 µM) | 0.5 to 16 µg/mL (≈ 0.902 to 28.9 µM) | 0.5 to 16 µg/mL (≈ 0.902 to 28.9 µM) | 0.5 to 16 µg/mL (≈ 0.902 to 28.9 µM) | 0.5 to 16 µg/mL (≈ 0.902 to 28.9 µM) | 0.5 to 16 µg/mL (≈ 0.902 to 28.9 µM)
2 | COc1ccc(N2CCN(CCc3nnn(C(C)C(O)(Cn4cncn4)c4ccc(F)cc4F)n3)CC2)cc1 (stereo not given) | 1 to 16 µg/mL (≈ 1.85 to 29.7 µM) | 1 to 16 µg/mL (≈ 1.85 to 29.7 µM) | 1 to 16 µg/mL (≈ 1.85 to 29.7 µM) | 1 to 16 µg/mL (≈ 1.85 to 29.7 µM) | 1 to 16 µg/mL (≈ 1.85 to 29.7 µM) | 1 to 16 µg/mL (≈ 1.85 to 29.7 µM) | 1 to 16 µg/mL (≈ 1.85 to 29.7 µM)
3 | COc1ccccc1N1CCN(CCc2nnnn2CC(O)(Cn2cncn2)c2ccc(F)cc2F)CC1 (stereo not given) | 0.5 to 16 µg/mL (≈ 0.951 to 30.4 µM) | 0.5 to 16 µg/mL (≈ 0.951 to 30.4 µM) | 0.5 to 16 µg/mL (≈ 0.951 to 30.4 µM) | 0.5 to 16 µg/mL (≈ 0.951 to 30.4 µM) | 0.5 to 16 µg/mL (≈ 0.951 to 30.4 µM) | 0.5 to 16 µg/mL (≈ 0.951 to 30.4 µM) | 0.5 to 16 µg/mL (≈ 0.951 to 30.4 µM)
4 | COc1ccc(N2CCN(CCc3nnnn3[C@@H](C)[C@](O)(Cn3cncn3)c3ccc(F)cc3F)CC2)cc1 | 0.12 to 16 µg/mL (≈ 0.222 to 29.7 µM) | 0.12 to 16 µg/mL (≈ 0.222 to 29.7 µM) | 0.12 to 16 µg/mL (≈ 0.222 to 29.7 µM) | 0.12 to 16 µg/mL (≈ 0.222 to 29.7 µM) | 0.12 to 16 µg/mL (≈ 0.222 to 29.7 µM) | 0.12 to 16 µg/mL (≈ 0.222 to 29.7 µM) | 0.12 to 16 µg/mL (≈ 0.222 to 29.7 µM)
5 | OC(Cn1cncn1)(Cn1nnc(CCN2CCN(c3c(Cl)cccc3Cl)CC2)n1)c1ccc(F)cc1F (stereo not given) | 1 to 16 µg/mL (≈ 1.77 to 28.3 µM) | 1 to 16 µg/mL (≈ 1.77 to 28.3 µM) | 1 to 16 µg/mL (≈ 1.77 to 28.3 µM) | 1 to 16 µg/mL (≈ 1.77 to 28.3 µM) | 1 to 16 µg/mL (≈ 1.77 to 28.3 µM) | 1 to 16 µg/mL (≈ 1.77 to 28.3 µM) | 1 to 16 µg/mL (≈ 1.77 to 28.3 µM)
6 | C[C@H](n1nnc(CCN2CCN(Cc3ccccc3)CC2)n1)[C@](O)(Cn1cncn1)c1ccc(F)cc1F | 0.25 to 16 µg/mL (≈ 0.477 to 30.6 µM) | 0.25 to 16 µg/mL (≈ 0.477 to 30.6 µM) | 0.25 to 16 µg/mL (≈ 0.477 to 30.6 µM) | 0.25 to 16 µg/mL (≈ 0.477 to 30.6 µM) | 0.25 to 16 µg/mL (≈ 0.477 to 30.6 µM) | 0.25 to 16 µg/mL (≈ 0.477 to 30.6 µM) | 0.25 to 16 µg/mL (≈ 0.477 to 30.6 µM)
7 | CC(n1nnc(CCN2CCN(c3ccccc3)CC2)n1)C(O)(Cn1cncn1)c1ccc(F)cc1F (stereo not given) | 1 to 16 µg/mL (≈ 1.96 to 31.4 µM) | 1 to 16 µg/mL (≈ 1.96 to 31.4 µM) | 1 to 16 µg/mL (≈ 1.96 to 31.4 µM) | 1 to 16 µg/mL (≈ 1.96 to 31.4 µM) | 1 to 16 µg/mL (≈ 1.96 to 31.4 µM) | 1 to 16 µg/mL (≈ 1.96 to 31.4 µM) | 1 to 16 µg/mL (≈ 1.96 to 31.4 µM)
8 | CCCCOc1ccccc1N1CCN(CCc2nnnn2CC(O)(Cn2cncn2)c2ccc(F)cc2F)CC1 (stereo not given) | 0.5 to 16 µg/mL (≈ 0.881 to 28.2 µM) | 0.5 to 16 µg/mL (≈ 0.881 to 28.2 µM) | 0.5 to 16 µg/mL (≈ 0.881 to 28.2 µM) | 0.5 to 16 µg/mL (≈ 0.881 to 28.2 µM) | 0.5 to 16 µg/mL (≈ 0.881 to 28.2 µM) | 0.5 to 16 µg/mL (≈ 0.881 to 28.2 µM) | 0.5 to 16 µg/mL (≈ 0.881 to 28.2 µM)
9 | CCCCOc1ccccc1N1CCN(CCc2nnn(CC(O)(Cn3cncn3)c3ccc(F)cc3F)n2)CC1 (stereo not given) | 1 to 16 µg/mL (≈ 1.76 to 28.2 µM) | 1 to 16 µg/mL (≈ 1.76 to 28.2 µM) | 1 to 16 µg/mL (≈ 1.76 to 28.2 µM) | 1 to 16 µg/mL (≈ 1.76 to 28.2 µM) | 1 to 16 µg/mL (≈ 1.76 to 28.2 µM) | 1 to 16 µg/mL (≈ 1.76 to 28.2 µM) | 1 to 16 µg/mL (≈ 1.76 to 28.2 µM)
10 | O=[N+]([O-])c1ccc(N2CCN(CCc3nnnn3CC(O)(Cn3cncn3)c3ccc(F)cc3F)CC2)cc1 (stereo not given) | 0.5 to 16 µg/mL (≈ 0.925 to 29.6 µM) | 0.5 to 16 µg/mL (≈ 0.925 to 29.6 µM) | 0.5 to 16 µg/mL (≈ 0.925 to 29.6 µM) | 0.5 to 16 µg/mL (≈ 0.925 to 29.6 µM) | 0.5 to 16 µg/mL (≈ 0.925 to 29.6 µM) | 0.5 to 16 µg/mL (≈ 0.925 to 29.6 µM) | 0.5 to 16 µg/mL (≈ 0.925 to 29.6 µM)
11 | CC(n1nnc(CCN2CCN(c3ccc([N+](=O)[O-])cc3)CC2)n1)C(O)(Cn1cncn1)c1ccc(F)cc1F (stereo not given) | 1 to 16 µg/mL (≈ 1.8 to 28.9 µM) | 1 to 16 µg/mL (≈ 1.8 to 28.9 µM) | 1 to 16 µg/mL (≈ 1.8 to 28.9 µM) | 1 to 16 µg/mL (≈ 1.8 to 28.9 µM) | 1 to 16 µg/mL (≈ 1.8 to 28.9 µM) | 1 to 16 µg/mL (≈ 1.8 to 28.9 µM) | 1 to 16 µg/mL (≈ 1.8 to 28.9 µM)
12 | CCCCOc1ccccc1N1CCN(CCc2nnn([C@@H](C)[C@](O)(Cn3cncn3)c3ccc(F)cc3F)n2)CC1 | 0.25 to 16 µg/mL (≈ 0.43 to 27.5 µM) | 0.25 to 16 µg/mL (≈ 0.43 to 27.5 µM) | 0.25 to 16 µg/mL (≈ 0.43 to 27.5 µM) | 0.25 to 16 µg/mL (≈ 0.43 to 27.5 µM) | 0.25 to 16 µg/mL (≈ 0.43 to 27.5 µM) | 0.25 to 16 µg/mL (≈ 0.43 to 27.5 µM) | 0.25 to 16 µg/mL (≈ 0.43 to 27.5 µM)
13 | CCCCOc1ccccc1N1CCN(CCc2nnnn2C(C)C(O)(Cn2cncn2)c2ccc(F)cc2F)CC1 (stereo not given) | 0.5 to 16 µg/mL (≈ 0.86 to 27.5 µM) | 0.5 to 16 µg/mL (≈ 0.86 to 27.5 µM) | 0.5 to 16 µg/mL (≈ 0.86 to 27.5 µM) | 0.5 to 16 µg/mL (≈ 0.86 to 27.5 µM) | 0.5 to 16 µg/mL (≈ 0.86 to 27.5 µM) | 0.5 to 16 µg/mL (≈ 0.86 to 27.5 µM) | 0.5 to 16 µg/mL (≈ 0.86 to 27.5 µM)
14 | OC(Cn1cncn1)(Cn1nnnc1CCN1CCN(c2ccc(Cc3ccccc3)cc2)CC1)c1ccc(F)cc1F (stereo not given) | 0.5 to 16 µg/mL (≈ 0.854 to 27.3 µM) | 0.5 to 16 µg/mL (≈ 0.854 to 27.3 µM) | 0.5 to 16 µg/mL (≈ 0.854 to 27.3 µM) | 0.5 to 16 µg/mL (≈ 0.854 to 27.3 µM) | 0.5 to 16 µg/mL (≈ 0.854 to 27.3 µM) | 0.5 to 16 µg/mL (≈ 0.854 to 27.3 µM) | 0.5 to 16 µg/mL (≈ 0.854 to 27.3 µM)
15 | CC(n1nnnc1CCN1CCN(c2ccccn2)CC1)C(O)(Cn1cncn1)c1ccc(F)cc1F (stereo not given) | 0.5 to 16 µg/mL (≈ 0.979 to 31.3 µM) | 0.5 to 16 µg/mL (≈ 0.979 to 31.3 µM) | 0.5 to 16 µg/mL (≈ 0.979 to 31.3 µM) | 0.5 to 16 µg/mL (≈ 0.979 to 31.3 µM) | 0.5 to 16 µg/mL (≈ 0.979 to 31.3 µM) | 0.5 to 16 µg/mL (≈ 0.979 to 31.3 µM) | 0.5 to 16 µg/mL (≈ 0.979 to 31.3 µM)
16 | C[C@H](n1nnc(CCN2CCN(c3ccccc3Cl)CC2)n1)[C@](O)(Cn1cncn1)c1ccc(F)cc1F | 0.25 to 16 µg/mL (≈ 0.46 to 29.4 µM) | 0.25 to 16 µg/mL (≈ 0.46 to 29.4 µM) | 0.25 to 16 µg/mL (≈ 0.46 to 29.4 µM) | 0.25 to 16 µg/mL (≈ 0.46 to 29.4 µM) | 0.25 to 16 µg/mL (≈ 0.46 to 29.4 µM) | 0.25 to 16 µg/mL (≈ 0.46 to 29.4 µM) | 0.25 to 16 µg/mL (≈ 0.46 to 29.4 µM)
17 | CC(n1nnnc1CCN1CCN(c2cccc(Cl)c2)CC1)C(O)(Cn1cncn1)c1ccc(F)cc1F (stereo not given) | 0.5 to 16 µg/mL (≈ 0.919 to 29.4 µM) | 0.5 to 16 µg/mL (≈ 0.919 to 29.4 µM) | 0.5 to 16 µg/mL (≈ 0.919 to 29.4 µM) | 0.5 to 16 µg/mL (≈ 0.919 to 29.4 µM) | 0.5 to 16 µg/mL (≈ 0.919 to 29.4 µM) | 0.5 to 16 µg/mL (≈ 0.919 to 29.4 µM) | 0.5 to 16 µg/mL (≈ 0.919 to 29.4 µM)
18 | C[C@H](n1nnnc1CCN1CCN(c2ccc(F)cc2)CC1)[C@](O)(Cn1cncn1)c1ccc(F)cc1F | 0.12 to 16 µg/mL (≈ 0.227 to 30.3 µM) | 0.12 to 16 µg/mL (≈ 0.227 to 30.3 µM) | 0.12 to 16 µg/mL (≈ 0.227 to 30.3 µM) | 0.12 to 16 µg/mL (≈ 0.227 to 30.3 µM) | 0.12 to 16 µg/mL (≈ 0.227 to 30.3 µM) | 0.12 to 16 µg/mL (≈ 0.227 to 30.3 µM) | 0.12 to 16 µg/mL (≈ 0.227 to 30.3 µM)
19 | C[C@H](n1nnnc1CCN1CCN(c2cccc(Cl)c2)CC1)[C@](O)(Cn1cncn1)c1ccc(F)cc1F | 0.12 to 16 µg/mL (≈ 0.221 to 29.4 µM) | 0.12 to 16 µg/mL (≈ 0.221 to 29.4 µM) | 0.12 to 16 µg/mL (≈ 0.221 to 29.4 µM) | 0.12 to 16 µg/mL (≈ 0.221 to 29.4 µM) | 0.12 to 16 µg/mL (≈ 0.221 to 29.4 µM) | 0.12 to 16 µg/mL (≈ 0.221 to 29.4 µM) | 0.12 to 16 µg/mL (≈ 0.221 to 29.4 µM)
20 | OC(Cn1cncn1)(Cn1nnnc1CCN1CCN(c2ccccc2)CC1)c1ccc(F)cc1F (stereo not given) | 0.5 to 16 µg/mL (≈ 1.01 to 32.3 µM) | 0.5 to 16 µg/mL (≈ 1.01 to 32.3 µM) | 0.5 to 16 µg/mL (≈ 1.01 to 32.3 µM) | 0.5 to 16 µg/mL (≈ 1.01 to 32.3 µM) | 0.5 to 16 µg/mL (≈ 1.01 to 32.3 µM) | 0.5 to 16 µg/mL (≈ 1.01 to 32.3 µM) | 0.5 to 16 µg/mL (≈ 1.01 to 32.3 µM)
